According to patent US8043823B2, “Methods of identifying agonists and antagonists of hTASR bitter taste receptors” (Deutsches Institut fuer Ernaehrungsforschung, priority 2007, dated 2011):

Experiments:
Format in all cases: cell-based
TAS2R47 = biological target: T1, TAS2R47 (Homo sapiens, UniProt P59541); test: FLIPR calcium imaging of HEK-293T Gα16gust44 cells transiently expressing TAS2R47
T1 construct: expressed in transfected cells; host or cells: HEK-293T cells stably expressing Gα16gust44
T1 sequence (P59541 1-319): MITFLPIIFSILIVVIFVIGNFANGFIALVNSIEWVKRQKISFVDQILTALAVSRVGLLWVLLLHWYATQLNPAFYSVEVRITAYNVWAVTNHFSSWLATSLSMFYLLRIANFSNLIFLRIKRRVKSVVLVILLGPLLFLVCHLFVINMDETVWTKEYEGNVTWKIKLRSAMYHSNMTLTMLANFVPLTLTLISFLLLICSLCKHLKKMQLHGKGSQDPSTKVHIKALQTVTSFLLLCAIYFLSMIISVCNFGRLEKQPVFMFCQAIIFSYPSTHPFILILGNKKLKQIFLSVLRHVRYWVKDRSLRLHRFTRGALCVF
Source text: (§1) Functional expression. Human TAS2R cDNA constructs were used that encoded a plasma membrane-targeting sequence of the rat somatostatin type 3 receptor at the N-terminus of the recombinant polypeptide and a herpes simplex virus glycoprotein D (HSV) epitope at its C-terminus (Bufe et al., 2002). The constructs were transiently transfected into HEK-293T cells that stably express the chimeric G-protein subunit Gα16gust44 using Lipofectamine 2000 (Invitrogen, San Diego, Calif.) in 96-well microtiter plates. Calcium imaging experiments using an automated fluorometric imaging plate reader (FLIPR) (Molecular Devices, Munich, Germany) have been performed 24-32 h later essentially as described previously (Bufe et al., 2002). Tastants (Sigma-Aldrich, Taufkirchen, Germany) were dissolved and administered in the following (in mM): 130 NaCl, 5 KCl, 10 HEPES, 2 CaCl2, and 10 mM glucose, pH7.4. Data were collected from 1-2 independent experiments performed at least in triplicate and processed with SigmaPlot (SPSS, Chicago, Ill.). For dose-response curve calculation, the peak fluorescence responses after compound addition were corrected for and normalized to background fluorescence (ΔF/F=(F−F0)/F0), and baseline noise was subtracted. […]

TAS2R46 = biological target: T2, TAS2R46 (Homo sapiens, UniProt P59540); test: FLIPR calcium imaging of HEK-293T Gα16gust44 cells transiently expressing TAS2R46; details: intracellular calcium response
T2 construct: expressed in transfected cells; host or cells: HEK-293T cells stably expressing Gα16gust44
T2 sequence (P59540 with tags, fused parts or gaps): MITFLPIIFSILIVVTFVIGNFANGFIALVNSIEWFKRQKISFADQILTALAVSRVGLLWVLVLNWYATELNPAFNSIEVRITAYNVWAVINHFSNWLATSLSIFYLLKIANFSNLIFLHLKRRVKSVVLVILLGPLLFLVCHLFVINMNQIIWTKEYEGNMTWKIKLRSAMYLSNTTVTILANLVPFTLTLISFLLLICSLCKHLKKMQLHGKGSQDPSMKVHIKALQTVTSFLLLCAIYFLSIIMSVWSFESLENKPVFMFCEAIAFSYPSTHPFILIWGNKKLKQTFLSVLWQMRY
Source text: as §1

TAS2R50 = biological target: T3, TAS2R50 (Homo sapiens, UniProt P59544, C203Y); test: FLIPR calcium imaging of HEK-293T Gα16gust44 cells transiently expressing TAS2R50
T3 construct: expressed in transfected cells; host or cells: HEK-293T cells stably expressing Gα16gust44
T3 sequence (P59544 1-299 C203Y): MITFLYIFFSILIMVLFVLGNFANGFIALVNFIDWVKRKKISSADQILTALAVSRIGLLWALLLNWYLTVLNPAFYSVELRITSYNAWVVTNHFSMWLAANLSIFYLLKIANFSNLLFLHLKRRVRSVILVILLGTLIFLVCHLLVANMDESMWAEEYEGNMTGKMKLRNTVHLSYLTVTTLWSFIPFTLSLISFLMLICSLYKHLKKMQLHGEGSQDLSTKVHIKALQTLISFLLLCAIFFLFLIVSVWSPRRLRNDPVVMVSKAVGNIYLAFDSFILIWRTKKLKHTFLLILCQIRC
Source text: as §1

molar range at which TAS2R47 responded (TAS2R47; Table 1, assay similar to Example 1) [mM]	concentration to which TAS2R46-expressing cells already responded (TAS2R46) [µM]	concentration at which TAS2R47-expressing HEK293 cells responded (TAS2R47; intracellular calcium response, 30 μM or higher) [µM]	EC50 (TAS2R50; dose-response curve on TAS2R50, FIG. 2, one experiment in triplicate) [µM]	response of TAS2R50 in FLIPR calcium imaging (TAS2R50; result in words)	Structure (SMILES)
0.3					CC12CCC(CC1=O)C2(C)C (centres unmarked) [Camphor, camphor]
	3	≥ 30	5.6	low micromolar range	C=C1CC[C@@H]2[C@](C)(CO)[C@H](O)CC[C@@]2(C)[C@@H]1C/C=C1/C(=O)OC[C@H]1O [andrographolide]
